Molecules are shown by their SMILES.

Here are results for one compound from article PMC2504886 (The Journal of Biological Chemistry, 2008).

The target in the assay is T1, T. maritima CopA (WT CopA) (Thermotoga maritima, UniProt Q9WYF3).
T1 sequence (Q9WYF3 1-726): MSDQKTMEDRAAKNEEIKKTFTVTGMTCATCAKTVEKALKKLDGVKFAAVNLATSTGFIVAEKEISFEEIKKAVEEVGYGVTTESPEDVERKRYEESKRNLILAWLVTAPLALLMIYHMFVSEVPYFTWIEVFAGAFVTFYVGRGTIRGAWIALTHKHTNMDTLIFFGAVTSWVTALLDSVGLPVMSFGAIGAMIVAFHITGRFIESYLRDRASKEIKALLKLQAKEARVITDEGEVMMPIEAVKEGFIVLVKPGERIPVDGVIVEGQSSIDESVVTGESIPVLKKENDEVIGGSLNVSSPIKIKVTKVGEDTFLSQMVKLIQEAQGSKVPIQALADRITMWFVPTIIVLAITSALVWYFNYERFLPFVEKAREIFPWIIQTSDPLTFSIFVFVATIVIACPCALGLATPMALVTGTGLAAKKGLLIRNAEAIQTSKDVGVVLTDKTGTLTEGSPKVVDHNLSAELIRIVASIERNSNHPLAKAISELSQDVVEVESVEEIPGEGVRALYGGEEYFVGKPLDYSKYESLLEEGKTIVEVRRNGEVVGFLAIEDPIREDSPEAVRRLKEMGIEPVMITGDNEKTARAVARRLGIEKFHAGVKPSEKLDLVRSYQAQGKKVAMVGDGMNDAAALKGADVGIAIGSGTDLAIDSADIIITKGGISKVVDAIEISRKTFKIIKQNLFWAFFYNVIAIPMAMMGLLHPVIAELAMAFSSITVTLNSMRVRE
In words: phosphoenzyme. It counts as binding.

In turn, `O=P(O)(O)O` [Pi] came in with a dissociation constant (Kd) of 3.3 µM.
